IC50 data for one molecule are collected here from patent US11866437B1, “1,2-dioxo-2,3-dihydro-1H-pyrrolo[2,3-c]quinoline-7-carboxylic acid compounds as CK2 inhibitors” (KING FAISAL UNIVERSITY, priority 2023, dated 2024).

The test system of one experiment is PC3 (prostate). Briefly: In vitro cytotoxic activity MTT assay, PC3. Type of experiment: cell-based. The note with it: Homo sapiens, PC-3; PC3 cells, exposed for 96 hours; read-out: IC50, 50% inhibition of cell proliferation, PC3 (prostate). As to the method: (§1) Compounds 1-16 were screened for their in vitro cytotoxic activity utilizing a 3-(4,5-dimethyl-thiazol-2-yl)-2,5-diphenyltetrazolium bromide (MTT) assay against selected cancer human cell lines consisting of PC3 (prostate), HCT116 (colon), A375 (melanoma), H1299 (lung), MIAPaCa-2 (pancreas), HL60 (leukemia), MCF7 (breast), MDA-MB-231 (breast) (T. Mosmann, J. Immunol. Meth., 1983, 65, 55-63). The cells were cultured at 37° C. in RMPI1640 medium supplemented with 10% fetal bovine serum, 50 IU/mL penicillin, and 50 μg/mL streptomycin in a 5% CO2 incubator. All cells were sub-cultured 3 times/week by trypsinisation. Viable cells were seeded and allowed to adhere for 12 h before a test drug was added in 96-well plates at an initial density of 1.0×10^5 cells/mL. Tumour cell lines were separately exposed to various concentrations of the tested compounds followed by incubation at a temperature of 37° C. during 96 h inside a medium of fresh RMPI 1640. Cells were subsequently incubated at 37° C. using MTT at 0.5 mg/mL during 4 h. After removal of supernatant, formazan crystals were dissolved in isopropanol and the optical density was measured at 570 nm. CX-4945 was used as a positive control.

The subject of the next experiment is HCT116 (colon). Briefly: In vitro cytotoxic activity MTT assay, HCT116. It is filed as cell-based. The note with it: Homo sapiens, HCT-116; HCT116 cells, exposed for 96 hours; read-out: IC50, 50% inhibition of cell proliferation, HCT116 (colon). As to the method: as §1
On the technique in general: Formazan colour is commonly taken as a measure of viable cells.

In the next experiment the test system is A375 (melanoma). In words: In vitro cytotoxic activity MTT assay, A375. It is filed as cell-based. The note with it: Homo sapiens, A-375; A375 cells, exposed for 96 hours; read-out: IC50, 50% inhibition of cell proliferation, A375 (melanoma). As to the method:
as §1

The test system of the next experiment is H1299 (lung). In words: In vitro cytotoxic activity MTT assay, H1299. It is filed as cell-based. The note with it: Homo sapiens, NCI-H1299; H1299 cells, exposed for 96 hours; read-out: IC50, 50% inhibition of cell proliferation, H1299 (lung). The protocol:
as §1

In the next experiment the test system is MIAPaCa-2 (pancreas). In words: In vitro cytotoxic activity MTT assay, MIAPaCa-2. Type of experiment: cell-based. The note with it: Homo sapiens, MIA PaCa-2; MIAPaCa-2 cells, exposed for 96 hours; read-out: IC50, 50% inhibition of cell proliferation, MIAPaCa-2 (pancreas). As to the method: as §1
A further experiment has as its system HL60 (leukemia). Briefly: In vitro cytotoxic activity MTT assay, HL60. The note with it: Homo sapiens, HL-60; HL60 cells, exposed for 96 hours; read-out: IC50, 50% inhibition of cell proliferation, HL60 (leukemia). It is filed as cell-based. As to the method:
as §1

A further experiment concerns MCF7 (breast). In words: In vitro cytotoxic activity MTT assay, MCF7. Type of experiment: cell-based. The note with it: Homo sapiens; MCF7 cells, exposed for 96 hours; read-out: IC50, 50% inhibition of cell proliferation, MCF7 (breast). As to the method: as §1
The test system of another experiment is MDA-MB-231 (breast). In words: In vitro cytotoxic activity MTT assay, MDA-MB-231. Type of experiment: cell-based. The note with it: Homo sapiens; MDA-MB-231 cells, exposed for 96 hours; read-out: IC50, 50% inhibition of cell proliferation, MDA-MB-231 (breast). As to the method: as §1
A further experiment concerns the target T1, recombinant human CK2 (Homo sapiens, UniProt P68400).
T1 construct: purchased Millipore
Briefly: CK2 Kinase Assay (33P-ATP, substrate peptide RRRDDDSDDD). It is filed as biochemical. The note with it: final ATP concentration 15 μM, 10 min at 30° C.; read-out: protein kinase CK2 IC50. The protocol:
CK2 Kinase Assay was conducted using the protocol as described in Pierre F. et al; J. Med. Chem. 2011, 54, 635-654. The tested compounds in aqueous solution were added at a volume of 10 μL to a reaction mixture comprising 10 μL of assay dilution buffer (ADB; 20 mM MOPS, pH 7.2, 25 mM β-glycerol phosphate, 5 mM EGTA, 1 mM sodium orthovanadate, and 1 mM dithiothreitol), 10 μL of substrate peptide (RRRDDDSDDD, dissolved in ADB at a concentration of 1 mM), 10 μL of recombinant human CK2 (RR-holoenzyme, 25 ng dissolved in ADB; Millipore). Reactions were initiated by the addition of 10 μL of ATP solution (90% 75 mMMgCl2, 75 μM ATP (final ATP concentration:15 μM) dissolved in ADB; 10% [γ-33P] ATP (stock 1 mCi/100 μL; 3000 Ci/mmol (Perkin-Elmer) and maintained for 10 min at 30° C. The reactions were quenched with 100 μL of 0.75% phosphoric acid and then transferred to and filtered through a phosphor cellulose filter plate (Millipore). After washing each well five times with 0.75% phosphoric acid, the plate was dried under vacuum for 5 min and, following the addition of 15 μL of scintillation fluid to each well, the residual radioactivity was measured using a Wallac […] counter. The IC50 values were derived from eight concentrations of test inhibitors.

T1 sequence (P68400 whole entry): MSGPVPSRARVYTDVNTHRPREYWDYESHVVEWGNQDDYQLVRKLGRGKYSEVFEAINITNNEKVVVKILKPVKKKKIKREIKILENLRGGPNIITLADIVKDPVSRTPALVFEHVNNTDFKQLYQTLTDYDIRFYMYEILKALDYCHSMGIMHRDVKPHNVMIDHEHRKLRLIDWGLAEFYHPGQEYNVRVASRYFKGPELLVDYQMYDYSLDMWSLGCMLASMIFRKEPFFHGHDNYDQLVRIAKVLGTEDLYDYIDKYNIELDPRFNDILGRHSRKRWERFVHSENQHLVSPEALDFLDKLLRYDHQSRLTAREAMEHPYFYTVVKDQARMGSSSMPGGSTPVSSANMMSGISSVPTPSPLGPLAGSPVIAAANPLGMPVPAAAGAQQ
T1 sequence (P67870 whole entry partner): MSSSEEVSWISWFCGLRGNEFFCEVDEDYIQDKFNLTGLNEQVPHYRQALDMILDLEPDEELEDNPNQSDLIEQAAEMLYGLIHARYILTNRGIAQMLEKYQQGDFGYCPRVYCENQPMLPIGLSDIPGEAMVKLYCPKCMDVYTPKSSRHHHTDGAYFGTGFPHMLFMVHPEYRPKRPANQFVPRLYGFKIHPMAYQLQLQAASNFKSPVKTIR

As for `O=C1Nc2c(Nc3cccc(Cl)c3)nc3cc(C(=O)O)ccc3c2C1=O` [Compound 1, 4-((3-chlorophenyl)amino)-1,2-dioxo-2,3-dihydro-1H-pyrrolo[2,3-c]quinoline-7-carboxylic acid], the IC50 in the experiment with PC3 (prostate) worked out at 0.9 µM; in the experiment on HCT116 (colon), 1.1 µM; in the experiment on A375 (melanoma) it was 2.3 µM; in the experiment with H1299 (lung), 1.6 µM; in the experiment with MIAPaCa-2 (pancreas), 1.5 µM; with HL60 (leukemia) it was 2.9 µM. The IC50 stood at 5.1 µM in the experiment with MCF7 (breast), 3.8 µM in the experiment with MDA-MB-231 (breast) and 0.019 µM on recombinant human CK2.
